# Assay results published in ChEMBL document CHEMBL2016457, “Discovery of potent and orally bioavailable 17β-hydroxysteroid dehydrogenase type 3 inhibitors” (Bioorg Med Chem, 2012).
# Active and inactive are the calls of the source. The rule behind the calls is not given here.
# Tests used:
# [1] = target: T1, Estrogen receptor (Homo sapiens) (UniProt P03372); assay: Agonist activity at human Estrogen receptor ERalpha expressed in human HeLa cells assessed as DHT-induced response after 40 hrs by luciferase/beta-galactosidase-based reporter gene assay; assay type: functional, cell-based
# T1 sequence (whole entry): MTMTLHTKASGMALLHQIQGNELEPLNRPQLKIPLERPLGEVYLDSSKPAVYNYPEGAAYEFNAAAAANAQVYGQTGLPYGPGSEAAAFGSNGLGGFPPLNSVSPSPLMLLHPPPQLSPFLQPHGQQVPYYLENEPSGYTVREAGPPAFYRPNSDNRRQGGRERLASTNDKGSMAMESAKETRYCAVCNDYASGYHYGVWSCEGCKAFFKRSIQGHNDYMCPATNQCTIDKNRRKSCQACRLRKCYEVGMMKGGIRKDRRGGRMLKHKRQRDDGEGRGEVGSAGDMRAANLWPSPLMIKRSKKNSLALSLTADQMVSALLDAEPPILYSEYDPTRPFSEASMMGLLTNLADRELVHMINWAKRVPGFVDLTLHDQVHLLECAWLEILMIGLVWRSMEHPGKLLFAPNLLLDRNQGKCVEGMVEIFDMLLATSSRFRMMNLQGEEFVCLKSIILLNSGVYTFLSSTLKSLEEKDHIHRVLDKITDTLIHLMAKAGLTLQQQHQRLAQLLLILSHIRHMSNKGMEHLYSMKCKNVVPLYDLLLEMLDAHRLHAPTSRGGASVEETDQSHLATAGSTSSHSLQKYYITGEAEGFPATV
# [2] = target: T2, 17-beta-hydroxysteroid dehydrogenase type 3 (Homo sapiens, UniProt P37058)
# T2 sequence (P37058 whole entry): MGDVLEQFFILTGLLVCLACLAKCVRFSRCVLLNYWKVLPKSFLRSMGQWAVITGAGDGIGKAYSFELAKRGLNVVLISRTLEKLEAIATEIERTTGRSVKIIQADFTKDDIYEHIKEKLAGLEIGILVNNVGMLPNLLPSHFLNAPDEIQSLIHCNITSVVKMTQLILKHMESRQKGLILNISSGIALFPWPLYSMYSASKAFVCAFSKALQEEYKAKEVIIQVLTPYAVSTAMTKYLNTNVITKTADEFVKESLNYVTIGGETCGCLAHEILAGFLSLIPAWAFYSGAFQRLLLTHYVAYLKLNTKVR
# Description: Inhibition of human recombinant 17-beta-HSD3 expressed in human HeLa cells using androstenedione as substrate preincubated for 30 mins prior substrate addition measured after 120 mins by spectrophotometry
# [3] = target: T3, 17-beta-hydroxysteroid dehydrogenase type 1 (Homo sapiens) (UniProt P14061); assay: Inhibition of human recombinant 17-beta-HSD1 expressed in human HeLa cells using estrone as substrate preincubated for 30 mins prior substrate addition measured after 120 mins by spectrophotometry; assay type: cell-based
# T3 sequence (whole entry): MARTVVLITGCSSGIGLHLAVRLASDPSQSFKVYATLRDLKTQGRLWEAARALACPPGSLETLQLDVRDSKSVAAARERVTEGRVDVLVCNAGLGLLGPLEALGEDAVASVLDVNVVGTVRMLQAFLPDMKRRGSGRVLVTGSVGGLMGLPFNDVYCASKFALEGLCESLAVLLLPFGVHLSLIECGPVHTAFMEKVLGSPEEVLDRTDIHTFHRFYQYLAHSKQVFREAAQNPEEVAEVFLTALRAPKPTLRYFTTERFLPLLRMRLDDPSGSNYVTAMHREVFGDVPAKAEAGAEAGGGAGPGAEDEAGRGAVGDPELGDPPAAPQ
# [4] = target: T4, Glucocorticoid receptor (Homo sapiens) (UniProt P04150); assay: Agonist activity at human Glucocorticoid receptor expressed in human HeLa cells assessed as DHT-induced response after 40 hrs by luciferase/beta-galactosidase-based reporter gene assay; assay type: functional, cell-based
# T4 sequence (whole entry): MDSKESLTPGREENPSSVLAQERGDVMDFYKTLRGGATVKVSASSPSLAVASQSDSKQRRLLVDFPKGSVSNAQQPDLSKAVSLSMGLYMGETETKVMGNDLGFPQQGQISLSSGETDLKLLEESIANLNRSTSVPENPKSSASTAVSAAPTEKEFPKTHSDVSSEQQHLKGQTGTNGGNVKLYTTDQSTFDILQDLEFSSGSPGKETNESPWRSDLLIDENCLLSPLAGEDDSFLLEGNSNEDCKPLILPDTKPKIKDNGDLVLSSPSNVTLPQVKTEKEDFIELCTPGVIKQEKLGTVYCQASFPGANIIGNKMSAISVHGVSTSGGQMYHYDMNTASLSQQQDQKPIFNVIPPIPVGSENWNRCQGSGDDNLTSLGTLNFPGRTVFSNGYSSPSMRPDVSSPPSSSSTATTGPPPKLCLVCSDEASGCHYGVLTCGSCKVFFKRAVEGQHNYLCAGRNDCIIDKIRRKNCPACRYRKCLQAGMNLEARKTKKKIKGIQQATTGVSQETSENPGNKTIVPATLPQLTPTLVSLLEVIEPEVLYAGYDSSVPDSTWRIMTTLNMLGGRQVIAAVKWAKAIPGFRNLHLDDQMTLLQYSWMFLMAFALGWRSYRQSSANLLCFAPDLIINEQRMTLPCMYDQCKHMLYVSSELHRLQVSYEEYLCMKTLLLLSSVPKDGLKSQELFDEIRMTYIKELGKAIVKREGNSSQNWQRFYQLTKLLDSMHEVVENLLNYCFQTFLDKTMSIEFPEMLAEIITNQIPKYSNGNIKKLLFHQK
# [5] = target: T5, Androgen receptor (Homo sapiens) (UniProt P10275); assay: Antagonist activity at human androgen receptor expressed in human HeLa cells assessed as inhibition of DHT-induced response after 40 hrs by luciferase/beta-galactosidase-based reporter gene assay; assay type: functional, cell-based
# T5 sequence (whole entry): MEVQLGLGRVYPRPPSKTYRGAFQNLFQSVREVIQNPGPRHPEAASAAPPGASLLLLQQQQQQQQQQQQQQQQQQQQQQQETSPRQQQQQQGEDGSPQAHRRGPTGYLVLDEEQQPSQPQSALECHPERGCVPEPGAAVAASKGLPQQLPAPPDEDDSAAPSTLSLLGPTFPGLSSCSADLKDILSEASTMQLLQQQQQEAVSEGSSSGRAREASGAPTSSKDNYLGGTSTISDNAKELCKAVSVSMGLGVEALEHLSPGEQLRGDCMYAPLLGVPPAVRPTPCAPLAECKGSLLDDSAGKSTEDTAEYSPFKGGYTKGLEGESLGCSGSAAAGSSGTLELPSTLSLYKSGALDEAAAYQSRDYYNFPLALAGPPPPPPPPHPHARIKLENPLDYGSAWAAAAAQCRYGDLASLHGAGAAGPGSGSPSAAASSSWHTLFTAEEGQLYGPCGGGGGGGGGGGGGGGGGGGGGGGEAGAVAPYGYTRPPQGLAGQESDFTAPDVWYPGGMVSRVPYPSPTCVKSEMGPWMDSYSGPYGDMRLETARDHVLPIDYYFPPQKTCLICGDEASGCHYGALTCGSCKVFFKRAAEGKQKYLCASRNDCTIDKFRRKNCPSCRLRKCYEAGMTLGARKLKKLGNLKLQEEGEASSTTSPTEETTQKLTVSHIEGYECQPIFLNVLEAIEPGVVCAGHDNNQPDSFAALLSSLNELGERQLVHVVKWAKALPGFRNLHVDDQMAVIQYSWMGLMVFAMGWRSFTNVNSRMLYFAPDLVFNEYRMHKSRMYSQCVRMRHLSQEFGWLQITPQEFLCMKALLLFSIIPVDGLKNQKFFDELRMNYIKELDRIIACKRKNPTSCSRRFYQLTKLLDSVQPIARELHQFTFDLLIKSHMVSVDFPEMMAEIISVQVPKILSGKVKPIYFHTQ
# [6] = target: T4, Glucocorticoid receptor (Homo sapiens); assay: Antagonist activity at human GR receptor expressed in human HeLa cells assessed as inhibition of DHT-induced response after 40 hrs by luciferase/beta-galactosidase-based reporter gene assay; assay type: functional, cell-based
# [7] = target: T5, Androgen receptor (Homo sapiens); assay: Agonist activity at human androgen receptor expressed in human HeLa cells assessed as DHT-induced response after 40 hrs by luciferase/beta-galactosidase-based reporter gene assay; assay type: functional, cell-based
# [8] = target: T1, Estrogen receptor (Homo sapiens); assay: Antagonist activity at human ERalpha receptor expressed in human HeLa cells assessed as inhibition of DHT-induced response after 40 hrs by luciferase/beta-galactosidase-based reporter gene assay; assay type: functional, cell-based
# [9] = target: T6, 17-beta-hydroxysteroid dehydrogenase type 2 (Homo sapiens) (UniProt P37059); assay: Inhibition of human recombinant 17-beta-HSD2 expressed in human HeLa cells using estradiol as substrate preincubated for 30 mins prior substrate addition measured after 120 mins by spectrophotometry; assay type: cell-based
# T6 sequence (whole entry): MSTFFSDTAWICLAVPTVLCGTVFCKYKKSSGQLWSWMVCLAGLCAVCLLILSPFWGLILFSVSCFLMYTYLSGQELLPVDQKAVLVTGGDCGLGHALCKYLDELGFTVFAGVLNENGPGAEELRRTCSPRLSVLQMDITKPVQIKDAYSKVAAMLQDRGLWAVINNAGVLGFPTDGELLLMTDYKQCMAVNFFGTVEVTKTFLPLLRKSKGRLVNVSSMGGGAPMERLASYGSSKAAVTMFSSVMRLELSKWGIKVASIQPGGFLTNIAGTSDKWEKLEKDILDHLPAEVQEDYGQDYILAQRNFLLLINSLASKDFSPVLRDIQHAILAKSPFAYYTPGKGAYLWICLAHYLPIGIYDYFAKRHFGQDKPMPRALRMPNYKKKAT
Activity [1],IC50 [2] [nM],inhibition [3],Activity [4],Activity [5],Activity [6],Activity [7],Activity [8],inhibition [9],SMILES
inactive,90,inactive,inactive,inactive,inactive,inactive,inactive,inactive,COc1ccc(CN2C(=O)/C(=C/c3ccc(O)c(Br)c3)SC2=S)cc1
inactive,20,inactive,inactive,inactive,inactive,inactive,inactive,inactive,O=C1O/C(=C\c2ccc(O)c(Br)c2)C(=O)N1c1ccc(Cl)nc1
inactive,190,inactive,inactive,inactive,inactive,inactive,inactive,inactive,COCCN1C(=O)/C(=C/c2ccc(O)c(Br)c2)SC1=S
inactive,90,inactive,inactive,inactive,inactive,inactive,inactive,inactive,CSc1ccc(N2C(=O)O/C(=C\c3ccc(O)c(Br)c3)C2=O)cc1
inactive,4,inactive,inactive,inactive,inactive,inactive,inactive,inactive,CN(C)c1ccc(N2C(=O)O/C(=C\c3ccc(O)c(Br)c3)C2=O)cn1
inactive,300,inactive,inactive,inactive,inactive,inactive,inactive,inactive,C#CCN1C(=O)/C(=C/c2ccc(O)c(Br)c2)SC1=S
inactive,56,inactive,inactive,inactive,inactive,inactive,inactive,inactive,CNC(=O)c1ccc(N2C(=O)O/C(=C\c3ccc(O)c(Br)c3)C2=O)cc1
inactive,57,inactive,inactive,inactive,inactive,inactive,inactive,inactive,CC(=O)Nc1ccc(N2C(=O)O/C(=C\c3ccc(O)c(Br)c3)C2=O)cc1
inactive,2,inactive,inactive,inactive,inactive,inactive,inactive,inactive,COc1ccc(N2C(=O)/C(=C/c3ccc(O)c(F)c3)OC2=S)cc1
inactive,6,inactive,inactive,inactive,inactive,inactive,inactive,inactive,O=C1/C(=C/c2ccc(O)c(Br)c2)OC(=S)N1c1ccc(Cl)cc1
inactive,22,inactive,inactive,inactive,inactive,inactive,inactive,inactive,O=C1O/C(=C\c2ccc(O)c(Br)c2)C(=O)N1c1cccnc1
